Assays:
786-0 [1] = experiment: Growth inhibition of human 786-0 cells assessed as cell growth at 10 uM after 48 hrs by sulforhodamine B assay; format: functional; settings: 786-0, 48 h, read-out: Activity
OVCAR-4 = experiment: Growth inhibition of human OVCAR4 cells assessed as cell growth at 10 uM after 48 hrs by sulforhodamine B assay; format: functional; settings: OVCAR-4, 48 h, read-out: Activity
LOX IMVI = experiment: Growth inhibition of human LOXIMVI cells after 48 hrs by sulforhodamine B assay; format: functional
ACHN = experiment: Growth inhibition of human ACHN cells assessed as cell growth at 10 uM after 48 hrs by sulforhodamine B assay; format: functional; settings: read-out: Activity
[2] = Growth inhibition of human HCC2998 cells after 48 hrs by sulforhodamine B assay; format: functional; settings: HCC 2998, 48 h
T47D [3] = experiment: Growth inhibition of human T47D cells after 48 hrs by sulforhodamine B assay; format: functional
SNB-19 = experiment: Growth inhibition of human SNB19 cells assessed as cell growth at 10 uM after 48 hrs by sulforhodamine B assay; format: functional; settings: SNB-19, 48 h, read-out: Activity
MDA-MB-231 [4] = experiment: Growth inhibition of human MDA-MB-231 cells after 48 hrs by sulforhodamine B assay; format: functional; settings: MDA-MB-231, 48 h
HCT-15 = experiment: Growth inhibition of human HCT15 cells after 48 hrs by sulforhodamine B assay; format: functional; settings: HCT-15, 48 h
HOP-62 = experiment: Growth inhibition of human HOP62 cells after 48 hrs by sulforhodamine B assay; format: functional; settings: HOP-62, 48 h
A498 = experiment: Growth inhibition of human A498 cells assessed as cell growth at 10 uM after 48 hrs by sulforhodamine B assay; format: functional; settings: A498, 48 h, read-out: Activity
T47D [5] = experiment: Growth inhibition of human T47D cells assessed as cell growth at 10 uM after 48 hrs by sulforhodamine B assay; format: functional; settings: read-out: Activity
HL-60(TB) = experiment: Growth inhibition of human HL-60(TB) cells after 48 hrs by sulforhodamine B assay; format: functional; settings: HL-60, 48 h
UACC-62 = experiment: Growth inhibition of human UACC62 cells assessed as cell growth at 10 uM after 48 hrs by sulforhodamine B assay; format: functional; settings: UACC-62, 48 h, read-out: Activity
SF-295 = experiment: Growth inhibition of human SF295 cells after 48 hrs by sulforhodamine B assay; format: functional, cell-based; settings: SF-295, 48 h
COLO 205 = experiment: Growth inhibition of human COLO205 cells after 48 hrs by sulforhodamine B assay; format: functional; settings: COLO 205, 48 h
786-0 [6] = experiment: Growth inhibition of human 786-0 cells after 48 hrs by sulforhodamine B assay; format: functional; settings: 786-0, 48 h
UO-31 [7] = experiment: Growth inhibition of human UO31 cells assessed as cell growth at 10 uM after 48 hrs by sulforhodamine B assay; format: functional; settings: UO-31, 48 h, read-out: Activity
IGROV-1 = experiment: Growth inhibition of human IGROV1 cells after 48 hrs by sulforhodamine B assay; format: functional; settings: IGROV-1, 48 h
K562 [8] = experiment: Growth inhibition of human K562 cells after 48 hrs by sulforhodamine B assay; format: functional; settings: K562, 48 h
MDA-MB-231 [9] = experiment: Growth inhibition of human MDA-MB-231 cells assessed as cell growth at 10 uM after 48 hrs by sulforhodamine B assay; format: functional; settings: MDA-MB-231, 48 h, read-out: Activity
MDA-MB-435 [10] = experiment: Growth inhibition of human MDA-MB-435 cells after 48 hrs by sulforhodamine B assay; format: functional, cell-based; settings: MDA-MB-435, 48 h
[11] = Growth inhibition of human Hs 578T cells assessed as cell growth at 10 uM after 48 hrs by sulforhodamine B assay; format: functional; settings: read-out: Activity
K562 [12] = experiment: Growth inhibition of human K562 cells assessed as cell growth at 10 uM after 48 hrs by sulforhodamine B assay; format: functional; settings: K562, 48 h, read-out: Activity
UO-31 [13] = experiment: Growth inhibition of human UO31 cells after 48 hrs by sulforhodamine B assay; format: functional; settings: UO-31, 48 h
MDA-MB-468 = experiment: Growth inhibition of human MDA-MB-468 cells after 48 hrs by sulforhodamine B assay; format: functional, cell-based; settings: MDA-MB-468, 48 h
SK-OV-3 = experiment: Growth inhibition of human SKOV3 cells assessed as cell growth at 10 uM after 48 hrs by sulforhodamine B assay; format: functional; settings: SK-OV-3, 48 h, read-out: Activity
DU-145 = experiment: Growth inhibition of human DU145 cells assessed as cell growth at 10 uM after 48 hrs by sulforhodamine B assay; format: functional; settings: DU-145, 48 h, read-out: Activity
SK-MEL-28 = experiment: Growth inhibition of human SK-MEL-28 cells after 48 hrs by sulforhodamine B assay; format: functional; settings: SK-MEL-28, 48 h
M14 = experiment: Growth inhibition of human M14 cells assessed as cell growth at 10 uM after 48 hrs by sulforhodamine B assay; format: functional; settings: M14, 48 h, read-out: Activity
NCI-H322M = experiment: Growth inhibition of human NCI-H322M cells assessed as cell growth at 10 uM after 48 hrs by sulforhodamine B assay; format: functional; settings: read-out: Activity
RPMI-8226 = experiment: Growth inhibition of human RPMI8226 cells after 48 hrs by sulforhodamine B assay; format: functional, cell-based; settings: RPMI-8226, 48 h
MDA-MB-435 [14] = experiment: Growth inhibition of human MDA-MB-435 cells assessed as cell growth at 10 uM after 48 hrs by sulforhodamine B assay; format: functional; settings: MDA-MB-435, 48 h, read-out: Activity
OVCAR-8 = experiment: Growth inhibition of human OVCAR8 cells assessed as cell growth at 10 uM after 48 hrs by sulforhodamine B assay; format: functional; settings: OVCAR-8, 48 h, read-out: Activity
[15] = read-out: LC50 (the source's name)

O=C(Nc1cccc(-n2cc(-c3ccncc3)c(-c3ccc(Cl)c(O)c3)n2)c1)Nc1ccc(Cl)c(C(F)(F)F)c1
growth at 10 µM (786-0 [1]): 4.7%
growth at 10 µM (OVCAR-4): -3.42%
GI50 (LOX IMVI): 554 nM
LC50 (LOX IMVI): 2390 nM
TGI (LOX IMVI): 1150 nM
growth at 10 µM (ACHN): 6.62%
GI50 [2]: 1060 nM
TGI [2]: 4120 nM
CC50 [2, 15]: 20700 nM
GI50 (T47D [3]): 1120 nM
TGI (T47D [3]): > 32500 nM
CC50 (T47D [3]; [15]): > 32500 nM
growth at 10 µM (SNB-19): -28.8%
GI50 (MDA-MB-231 [4]): 488 nM
LC50 (MDA-MB-231 [4]): 11400 nM
TGI (MDA-MB-231 [4]): 1440 nM
GI50 (HCT-15): 867 nM
LC50 (HCT-15): > 32500 nM
TGI (HCT-15): 13800 nM
GI50 (HOP-62): 1220 nM
TGI (HOP-62): 7830 nM
CC50 (HOP-62; [15]): > 32500 nM
growth at 10 µM (A498): 11.2%
growth at 10 µM (T47D [5]): -7.12%
GI50 (HL-60(TB)): 1500 nM
TGI (HL-60(TB)): > 32500 nM
CC50 (HL-60(TB); [15]): > 32500 nM
growth at 10 µM (UACC-62): -55.1%
GI50 (SF-295): 740 nM
IC50 (SF-295): 740 nM
TGI (SF-295): 2060 nM
CC50 (SF-295; [15]): > 32500 nM
GI50 (COLO 205): 2390 nM
LC50 (concentration killing 50% of cells) (COLO 205): 16100 nM
TGI (COLO 205): 6750 nM
GI50 (786-0 [6]): 1280 nM
TGI (786-0 [6]): > 32500 nM
CC50 (786-0 [6]; [15]): > 32500 nM
growth at 10 µM (UO-31 [7]): -6.09%
GI50 (IGROV-1): 715 nM
LC50 (concentration killing 50% of cells) (IGROV-1): > 32500 nM
TGI (IGROV-1): 2220 nM
GI50 (K562 [8]): 921 nM
TGI (K562 [8]): > 32500 nM
CC50 (K562 [8]; [15]): > 32500 nM
growth at 10 µM (MDA-MB-231 [9]): -36.4%
GI50 (MDA-MB-435 [10]): 660 nM
IC50 (MDA-MB-435 [10]): 660 nM
TGI (MDA-MB-435 [10]): 1770 nM
CC50 (MDA-MB-435 [10]; [15]): 21500 nM
growth at 10 µM [11]: -7.39%
growth at 10 µM (K562 [12]): -20.8%
GI50 (UO-31 [13]): 777 nM
TGI (UO-31 [13]): 3010 nM
CC50 (UO-31 [13]; [15]): > 32500 nM
GI50 (MDA-MB-468): 541 nM
IC50 (MDA-MB-468): 540 nM
TGI (MDA-MB-468): 1750 nM
CC50 (MDA-MB-468; [15]): > 32500 nM
growth at 10 µM (SK-OV-3): 7.47%
growth at 10 µM (DU-145): -17%
GI50 (SK-MEL-28): 978 nM
LC50 (SK-MEL-28): 12400 nM
TGI (SK-MEL-28): 3330 nM
growth at 10 µM (M14): -25.5%
growth at 10 µM (NCI-H322M): 24.7%
GI50 (RPMI-8226): 580 nM
IC50 (RPMI-8226): 580 nM
TGI (RPMI-8226): 2000 nM
CC50 (RPMI-8226; [15]): > 32500 nM
growth at 10 µM (MDA-MB-435 [14]): -31.3%
growth at 10 µM (OVCAR-8): -41.8%

Source: ChEMBL document CHEMBL2440076, “New triarylpyrazoles as broad-spectrum anticancer agents: design, synthesis, and biological evaluation” (Eur J Med Chem, 2013)
